# Reference: US10729692B2, “Dual inhibition of CDK and HSP90 destabilize HIF1alpha and synergistically induces cancer cell death” (Institute For Cancer Research, priority 2017, dated 2020)
# Legend:
# HIF1α [1] = assay: Heat shock-induced HIF1α level in HCT116 (Western blot); format: cell-based; details: HCT116, normoxia
# From the text: (§1) HCT116, SW480, HT29, DLD1, and RKO cells were obtained from American Type Culture Collection. HCT116 and HT29 cells were maintained in McCoy's 5A medium (Hyclone) with 10% fetal bovine serum (FBS, Hyclone) and 1% penicillin/streptomycin (P/S). SW480, DLD1, and RCC4 cells were maintained in Dulbecco's modified Eagle medium (Hyclone) with 10% FBS and 1% P/S. RKO cells were maintained in RPMI 1640 medium (Hyclone) with 10% FBS and 1% P/S. Cells were regularly tested and authenticated. All cell lines were maintained at 37° C. in 5% CO2. As for hypoxia treatment, cells were kept in a hypoxia chamber (In vivo^2, Ruskinn) which maintains 0.5% O2.
# (§2) Treated cells were lysed in RIPA buffer (Sigma). Protein concentrations were determined using a BCA Protein Assay Kit (Life Technologies). Equal amounts of total protein were boiled with LDS sample buffer (Thermo Fisher Scientific) and reducing agent (Invitrogen). Samples were analyzed with SDS-PAGE. Proteins were transferred to an Immobilon-P PVDF membrane (EMD Millipore). First and secondary antibodies were added in order. Signals were detected after addition of the ECL western blotting substrate (Thermo Fisher Scientific).
# HIF1α [2] = assay: HIF1α level in RCC4 cells (Western blot); format: cell-based; details: 6 hours under normoxia, independently of VHL presence
# From the text: as §1, §2
smiles,measurement,setting,value
O=C1NC(=NCc2cccs2)S/C1=C\c1ccc2ncccc2c1 [Ro-3306],reversal of heat shock upregulation of HIF1α,HIF1α [1],reversed
same,level of HIF1α,HIF1α [2],decreases
